The target in the first experiment is T1, A2A receptor (human, wild-type) (Homo sapiens, UniProt P29274).
T1 construct: gene ADORA2A; wild-type human A2A; BacMam-transfected cells (CHO-K1 for the cAMP assay)
T1 sequence (P29274 whole entry): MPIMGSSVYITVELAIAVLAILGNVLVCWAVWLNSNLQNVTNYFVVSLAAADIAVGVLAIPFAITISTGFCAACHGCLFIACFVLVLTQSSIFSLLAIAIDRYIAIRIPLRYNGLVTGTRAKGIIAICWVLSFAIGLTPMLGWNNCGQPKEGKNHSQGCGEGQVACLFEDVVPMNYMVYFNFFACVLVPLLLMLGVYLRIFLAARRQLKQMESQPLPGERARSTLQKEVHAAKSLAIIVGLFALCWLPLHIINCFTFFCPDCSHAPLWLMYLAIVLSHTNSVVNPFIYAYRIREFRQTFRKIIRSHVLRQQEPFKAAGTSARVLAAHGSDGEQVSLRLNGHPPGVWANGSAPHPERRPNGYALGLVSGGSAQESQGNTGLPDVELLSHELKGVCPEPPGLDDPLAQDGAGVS
Put plainly: cAMP accumulation HTRF, antagonist mode. The format is cell-based. The following applies: read-out: A2A / pIC50 (± SD) (converted). From the text: cAMP accumulation HTRF, antagonist mode on A2A receptor (human, wild-type)
For orientation: cAMP levels reflect the balance of adenylyl cyclase and phosphodiesterase activity.
On to `Nc1nc(-c2ccco2)nc2c1ccn2-c1ccncc1` [compound 9, Compound 9], for which the IC50 was 20 nM.

For `Nc1nc(-c2cccc(-n3ccnc3)n2)nc(-c2ccco2)n1` [compound 7, Compound 7], the IC50 was 25.1 nM.

The next experiment concerns the target T1, A2A receptor (human, wild-type). Put plainly: cAMP accumulation HTRF, agonist mode (compound alone). It is filed as cell-based. The following applies: read-out: A2A / pEC50 (± SD) (converted). From the text:
cAMP accumulation HTRF, agonist mode (compound alone) on A2A receptor (human, wild-type)
Consider `Nc1nc(-c2ccco2)nc2c1ccn2-c1ccncc1` [compound 9, Compound 9], for which the EC50 was 316 nM.

As to `Nc1nc(-c2ccc(O)cc2)c2cc(F)ccc2n1` [compound 5, Compound 5], the EC50 is 50.1 nM.

As to `Nc1nc(-c2cccc(-n3ccnc3)n2)nc(-c2ccco2)n1` [compound 7, Compound 7], the EC50 is 20 nM.

For another experiment the target is unchanged. Put plainly: [3H]-ZM241385 radioligand competition, filtration. It is filed as binding. The following applies: read-out: A2A / pKi (± SD) (converted). From the text: [3H]-ZM241385 radioligand competition, filtration on A2A receptor (human, wild-type)
For orientation: In a radioligand displacement assay an active substance lowers the binding of a labelled ligand.
Consider `Nc1cc(NCc2ccccc2F)nc(-c2ccccn2)n1` [compound 3, Compound 3], for which the Ki was 1260 nM.

As to `Nc1nc(-c2ccco2)nc2c1ccn2-c1ccncc1` [compound 9, Compound 9], the Ki was 31.6 nM.

Turning to `Nc1nc2cc(-c3ccoc3)cc(-c3ccco3)n2n1` [compound 6, Compound 6], the Ki is 1260 nM.

For `Nc1nc(-c2ccc(O)cc2)c2cc(F)ccc2n1` [compound 5, Compound 5], the Ki was 2000 nM.

Regarding `Nc1nc(-c2cccc(-n3ccnc3)n2)nc(-c2ccco2)n1` [compound 7, Compound 7], the Ki is 50.1 nM.

With `Cc1ccc(-c2nc(N)nn2-c2ccccc2)cc1` [compound 1, Compound 1], the Ki is 15800 nM.

These data come from publication PMC12216625, “Identification of nanomolar adenosine A2A receptor ligands using reinforcement learning and structure-based drug design” (Nature Communications, 2025).
